IC50 data for 27 compounds are collected here from patent US9145391B2, “Bipyridylaminopyridines as Syk inhibitors” (Merck Sharp & Dohme Corp., priority 2011, dated 2015).

For orientation: IC50 means the concentration at which inhibition is half-maximal.

This assay concerns the target recombinant human GST-Syk (Homo sapiens (Human), UniProt P43405). Kind of assay: Homogeneous Time-Resolved Fluorescence (HTRF) assay for the recombinant human Syk enzyme. The assay is classed as biochemical. Particulars: recombinant human GST-Syk 5 pM, ATP 25 μM, read-out: rhSyk IC50. Here is the method: Syk inhibition may be determined using the following assay protocol: Homogeneous Time-Resolved Fluorescence (HTRF) Assay for the Recombinant Human Syk Enzyme: A recombinant GST-hSyk fusion protein was used to measure potency of compounds to inhibit human Syk activity. […] To initiate the reaction the biotinylated substrate peptide (250 nM final concentration) that contains the phosphorylation site for Syk was added with magnesium (5 mM final concentration) and ATP (25 μM final concentration). […] Final volume of the quenching solution was 10 μL.

As for `Cc1cc(Nc2cc(C(F)(F)F)ccn2)nc(-c2ccc(C(C)(O)[C@H]3CC[C@H](C(=O)O)CC3)nc2)c1` (single isomer, unassigned) [Example 1, trans-4-((1R or 1S)-1-Hydroxy-1-(4-methyl-6-(4-(trifluoromethyl)pyridin-2-ylamino)-2,3′-bipyridin-6′-yl)ethyl)cyclohexanecarboxylic acid], the concentration for half-maximal inhibition (IC50) was < 0.5 nM.
`COC(=O)C1CCC(O)(c2ccc(-c3cc(C)cc(Nc4cc(C(F)(F)F)ccn4)n3)cn2)CC1(C)C` (single isomer, unassigned) [Example 1-6]: the 50% inhibitory concentration (IC50) came out at 405 nM.
The value for `COC(=O)C1CCC(O)(c2ccc(-c3cc(C)cc(Nc4cc(C(F)(F)F)ccn4)n3)cn2)CC1(C)C` (single isomer, unassigned) [Example 1-7] was 245 nM.
The value for `COC(=O)C1CCC(O)(c2ccc(-c3cc(C)cc(Nc4cc(C(F)(F)F)ccn4)n3)cn2)CC1(C)C` (single isomer, unassigned) [Example 1-9] was 100 nM.
Under `Cc1cc(Nc2cc(C(F)(F)F)ccn2)nc(-c2ccc(NC3CCC(C(=O)O)C(C)C3)nc2)c1` (single isomer, unassigned) [Example 3-2] stands < 0.5 nM; under `Cc1cc(Nc2cc(C(F)(F)F)ccn2)nc(-c2ccc(NC3CCC(C(=O)O)C(C)C3)nc2)c1` (single isomer, unassigned) [Example 3-3], 1 nM; under `Cc1cc(Nc2cc(C(F)(F)F)ccn2)nc(-c2ccc(NC3CCC(C(=O)O)C(C)(C)C3)nc2)c1` (single isomer, unassigned) [Example 3-4], < 0.5 nM.
For the compound `Cc1cc(Nc2cc(C(F)(F)F)ccn2)nc(-c2ccc(NC3CCC(C(=O)O)C(C)(C)C3)nc2)c1` (single isomer, unassigned) [Example 3-5], the IC50 was determined as 2 nM.
The value for `Cc1cc(Nc2cc(C(F)(F)F)ccn2)nc(-c2ccc([C@]3(O)CC[C@H](C(N)=O)C(C)(C)C3)nc2)c1` (single isomer, unassigned) [Example 8, (1S,4S or 1R,4R)-4-Hydroxy-2,2-dimethyl-4-(4-methyl-6-{[4-(trifluoromethyl)pyridin-2-yl]amino}-2,3′-bipyridin-6′-yl)cyclohexanecarboxamide] was 23 nM; that for `COC(=O)[C@H]1CC[C@H](C(C)(O)c2ccc(-c3cc(C)cc(Nc4cc(C(F)F)ccn4)n3)cn2)CC1` (single isomer, unassigned) [Example 11, Methyl trans-4-[(1R or 1S)-(6-{[4-(difluoromethyl)pyridin-2-yl]amino}-4-methyl-2,3′-bipyridin-6′-yl)-1-hydroxyethyl]cyclohexanecarboxylate] was 9 nM.
As for `Cc1cc(Nc2cc(C(F)F)ccn2)nc(-c2ccc(C(C)(O)[C@H]3CC[C@H](C(=O)O)CC3)nc2)c1` (single isomer, unassigned) [Example 12, trans-4-[(1R or 1S)-(6-{[4-(Difluoromethyl)pyridin-2-yl]amino}-4-methyl-2,3′-bipyridin-6′-yl)-1-hydroxyethyl]cyclohexanecarboxylic acid], the IC50 was < 0.5 nM.
The value for `Cc1cc(Nc2cc(C(F)F)ccn2)nc(-c2ccc(C(C)(O)C3CCC(C(=O)O)CC3)nc2)c1` (single isomer, unassigned) [Example 12-1, trans-4-[(1R or 1S)-(6-{[4-(difluoromethyl)pyridin-2-yl]amino}-4-methyl-2,3′-bipyridin-6′-yl)-1-hydroxyethyl]cyclohexanecarboxylic acid] was 1 nM; that for `Cc1cc(Nc2cc(C(F)F)ccn2)nc(-c2ccc(C(C)(O)[C@H]3CC[C@@H](C(=O)O)CC3)nc2)c1` (single isomer, unassigned) [Example 12-2, cis-4-[(1R or 1S)-(6-{[4-(difluoromethyl)pyridin-2-yl]amino}-4-methyl-2,3′-bipyridin-6′-yl)-1-hydroxyethyl]cyclohexanecarboxylic acid] was < 0.5 nM.
As to `Cc1cc(Nc2cc(C(F)F)ccn2)nc(-c2ccc(C(C)(O)[C@H]3CC[C@@H](C(=O)O)CC3)nc2)c1` (single isomer, unassigned) [Example 12-3, cis-4-[(1R or 1S)-(6-{[4-(difluoromethyl)pyridin-2-yl]amino}-4-methyl-2,3′-bipyridin-6′-yl)-1-hydroxyethyl]cyclohexanecarboxylic acid], the IC50 turned out to be 1 nM.
`Cc1cc(Nc2cc(C(F)F)ccn2)nc(-c2ccc(C(C)(F)[C@H]3CC[C@H](C(=O)O)CC3)nc2)c1` (single isomer, unassigned) [Example 13, trans-4-(1R or 1S)-(6-(4-(Difluoromethyl)pyridin-2-ylamino)-4-methyl-2,3′-bipyridin-6′-yl)-1-fluoroethyl)cyclohexanecarboxylic acid]: the concentration for half-maximal inhibition (IC50) is < 0.5 nM.
Under `Cc1cc(Nc2cc(C(F)(F)F)ccn2)nc(-c2ccc(C(C)[C@H]3CC[C@H](C(=O)O)CC3)nc2)c1` (single isomer, unassigned) [Example 14, trans-4-[(1R or 1S)-(4-Methyl-6-{[4-(trifluoromethyl)pyridin-2-yl]amino}-2,3′-bipyridin-6′-yl)ethyl]cyclohexanecarboxylic acid] stands < 0.5 nM.
`Cc1cc(Nc2cc(C(F)F)ccn2)nc(-c2ccc(C(C)(O)[C@H]3CC[C@H](C(=O)O)CC3)nc2)c1Br` (single isomer, unassigned) [Example 15, trans-4-((1R or 1S)-(3-Bromo-6-(4-(difluoromethyl)pyridin-2-ylamino)-4-methyl-2,3′-bipyridin-6′-yl)-1-hydroxyethyl)cyclohexanecarboxylic acid]: the concentration for half-maximal inhibition (IC50) is 1 nM.
Under `Cc1cc(Nc2cc(C(F)F)ccn2)nc(-c2ccc(C(C)(O)[C@H]3CC[C@H](C(=O)O)CC3)nc2)c1` (single isomer, unassigned) [Example 16, Sodium trans-4-[(1R or 1S)-1-(6-{[4-(difluoromethyl)pyridin-2-yl]amino}-4-methyl-2,3′-bipyridin-6′-yl)-1-hydroxyethyl]cyclohexanecarboxylate] stands < 0.5 nM; under `Cc1cc(Nc2cc(C(F)F)ccn2)nc(-c2ccc(C(C)(O)[C@H]3CC[C@H](C(=O)OCCO)CC3)nc2)c1` (single isomer, unassigned) [Example 18, 2-Hydroxyethyl trans-4-[(1R or 1S)-1-(6-{[4-(difluoromethyl)pyridin-2-yl]amino}-4-methyl-2,3′-bipyridin-6′-yl)-1-hydroxyethyl]cyclohexanecarboxylate], 3.4 nM.
Under `Cc1cc(Nc2cc(C(F)F)ccn2)nc(-c2ccc(C(C)(O)[C@H]3CC[C@H](C(=O)OCc4ccccc4)CC3)nc2)c1` (single isomer, unassigned) [Example 19-1, benzyl trans-4-[(1R or 1S)-1-(6-{[4-(difluoromethyl)pyridin-2-yl]amino}-4-methyl-2,3′-bipyridin-6′-yl)-1-hydroxyethyl] cyclohexanecarboxylate] stands 35 nM; under `CCCOC(=O)[C@H]1CC[C@H](C(C)(O)c2ccc(-c3cc(C)cc(Nc4cc(C(F)F)ccn4)n3)cn2)CC1` (single isomer, unassigned) [Example 19-2, propyl trans-4-[(1R or 1S)-1-(6-{[4-(difluoromethyl)pyridin-2-yl]amino}-4-methyl-2,3′-bipyridin-6′-yl)-1-hydroxyethyl] cyclohexanecarboxylate], 32 nM.
The value for `Cc1cc(Nc2cc(C(F)F)ccn2)nc(-c2ccc(C(C)(O)[C@H]3CC[C@H](C(=O)OC(C)C)CC3)nc2)c1` (single isomer, unassigned) [Example 19-3, propan-2-yl trans-4-[(1R or 1S)-1-(6-{[4-(difluoromethyl)pyridin-2-yl]amino}-4-methyl-2,3′-bipyridin-6′-yl)-1-hydroxyethyl] cyclohexanecarboxylate] was 50 nM.
As to `CCCCOC(=O)[C@H]1CC[C@H](C(C)(O)c2ccc(-c3cc(C)cc(Nc4cc(C(F)F)ccn4)n3)cn2)CC1` (single isomer, unassigned) [Example 19-4, butyl trans-4-[(1R or 1S)-1-(6-{[4-(difluoromethyl)pyridin-2-yl]amino}-4-methyl-2,3′-bipyridin-6′-yl)-1-hydroxyethyl] cyclohexanecarboxylate], the IC50 is 65 nM.
The value for `CCC(C)OC(=O)[C@H]1CC[C@H](C(C)(O)c2ccc(-c3cc(C)cc(Nc4cc(C(F)F)ccn4)n3)cn2)CC1` (single isomer, unassigned) [Example 19-5, butan-2-yl trans-4-[(1R or 1S)-1-(6-{[4-(difluoromethyl)pyridin-2-yl]amino}-4-methyl-2,3′-bipyridin-6′-yl)-1-hydroxyethyl] cyclohexanecarboxylate] was 7 nM; that for `Cc1cc(Nc2cc(C(F)F)ccn2)nc(-c2ccc(C(C)(O)[C@H]3CC[C@H](C(=O)OCC(C)C)CC3)nc2)c1` (single isomer, unassigned) [Example 19-6, 2-methylpropyl trans-4-[(1R or 1S)-1-(6-{[4-(difluoromethyl)pyridin-2-yl]amino}-4-methyl-2,3′-bipyridin-6′-yl)-1-hydroxyethyl] cyclohexanecarboxylate] was 74 nM.
Take `CCCCCOC(=O)[C@H]1CC[C@H](C(C)(O)c2ccc(-c3cc(C)cc(Nc4cc(C(F)F)ccn4)n3)cn2)CC1` (single isomer, unassigned) [Example 19-7, pentyl trans-4-[(1R or 1S)-1-(6-{[4-(difluoromethyl)pyridin-2-yl]amino}-4-methyl-2,3′-bipyridin-6′-yl)-1-hydroxyethyl] cyclohexanecarboxylate]: the concentration for half-maximal inhibition (IC50) came out at 100 nM.
Turning to `Cc1cc(Nc2cc(C(F)F)ccn2)nc(-c2ccc(C(C)(O)[C@H]3CC[C@H](C(=O)OCC(C)(C)C)CC3)nc2)c1` (single isomer, unassigned) [Example 19-8, 2,2-dimethylpropyl trans-4-[(1R or 1S)-1-(6-{[4-(difluoromethyl)pyridin-2-yl]amino}-4-methyl-2,3′-bipyridin-6′-yl)-1-hydroxyethyl] cyclohexanecarboxylate], the IC50 was 150 nM.
